Test system: BALB/c mice
Experiment: hypocalcemic test in vivo in BALB/c mice
Settings: for biological activity as percentage activity of the hypocalcemic effect maximally achievable in this test: 100% = effect achieved by 2 μg of hCt, BALB/c mice
Protocol: The biological activity of the analogs was determined by means of a hypocalcemic test in vivo in BALB/c mice.
The biological activity is shown as a percentage [%] activity of the hypocalcemic effect maximally achievable in this test, as is achieved by 2 μg of hCt.

[1] = concentration of the peptides 0.1 ng/ml
[2] = concentration of the peptides 1 ng/ml
[3] = concentration of the peptides 10 ng/ml
[4] = concentration of the peptides 0.01 ng/ml
[5] = relative to hCt, mouse in-vivo test

Row | Substance | biological activity as percentage activity of the hypocalcemic effect maximally achievable in this test [1] [%] | biological activity as percentage activity of the hypocalcemic effect maximally achievable in this test [2] [%] | biological activity as percentage activity of the hypocalcemic effect maximally achievable in this test [3] [%] | biological activity as percentage activity of the hypocalcemic effect maximally achievable in this test [4] [%] | activity above the activity of the human calcitonin [5] [fold] | times more active than the original human calcitonin [5] [times] | times more active than calcitonin from salmon (sCt) (relative to sCt, mouse in-vivo test)
1 | human calcitonin [hCt, reference compound] | 5.8 | 15.8 | 35.2 |  |  |  | 
2 | calcitonin from salmon [sCt, reference compound] | 51.6 | 63.2 |  | 21.1 |  |  | 
3 | cyclo^17,21-[Asp^17,Orn^21]-hCt [Cyclo^17,21-[Asp^17, Om^21]-hCt] | 68.4 | 76.3 | 86.8 | 36.8 | 363 | 360 | three

— US6617423B1, “Superpotent calcitonin analogs having greatly increased hypocalcemic action in vivo” (Fraunhofer-Gesellschaft zur Forderung der Angewandten …, priority 1997, dated 2003)
